The test system of assay [1] is Rat PRP. Nature of the assay: Assay of in Vitro Antiplatelet Aggregation (turbidimetry, rat PRP stimulated with ADP and collagen). Type of assay: cell-based. As to conditions: maximal aggregation induced by ADP and collagen. Here is the method: Platelet aggregation was determined using methods and minor variations as described in Choo et al., Biol. Pharm. Bull. 25(10) 1328-1332 (2002) and Born et al., J. Physiol., 168, 178-195 (1963). For example, blood from rats was collected by cardiac puncture into a plastic flask containing 2.2% sodium citrate (1:9 v/v). Platelet-rich plasma (PRP) was prepared by centrifugation of the blood at 120×g for 15 min and further centrifuged at 850×g for 10 min to prepare platelet poor plasma (PPP). The supernatant was pooled and centrifuged at 600×g for 15 min at room temperature. The platelet pellets were washed with modified Tyrode-HEPES buffer (129 mM NaCl, 2.8 mM KCl, 8.9 mM NaHCO3, 0.8 mM MgCl2, 0.8 mM KH2PO4, 2 mM EGTA, 5.6 mM glucose, 10 mM HEPES, 0.35% BSA, pH 7.4) and centrifuged at 600×g for 15 min. Then platelet pellets were gently resuspended in Tyrode-HEPES buffer and used in the experiments.
Platelet aggregation was measured by turbidimetry using a dual-channel Whole Lumini-lonized Calcium Aggregometer (Chrono-Log Co., Ltd., Havertown, Pa., U.S.A.). Rat PRP ([…]) was incubated at 37° C. for 2 min in the aggregometer with stirring at 1200 rpm and then stimulated with ADP and collagen. […] Changes in light transmission were recorded for 10 min after stimulation with these agents. […]

For assay [2], the system named is male Sprague-Dawley rats. Put plainly: Animal Model (In Vivo) Assay For Platelet Aggregation Activity using arteriovenous shunts. As to conditions: oral; for Thrombus weight (newly formed thrombus wet weight): glycerol glucoside derivative 50, 100 mg/kg, aspirin 30 mg/kg x 4 times, 120 min after treatment, shunt 15 minutes, saline 12.9 mg. Set-up: species or system rat. Here is the method:
Assays for platelet aggregation activity using arteriovenous shunts were carried out as provided in Umetsu et al., “Effect Of 1-Methyl-2-Mercapto-5(3-Pyridyl)-Imidazole (KC-6141), An Antiaggregation Compound, On Experimental Thrombosis In Rats” Thromb Haemostasis 39:74-83 (1978); and Tang et al., “Anti-Thrombotic Activity Of PDR, A Newly Synthesized L-Arg Derivative, On Three Thrombosis Models In Rats” Thrombosis Research 110:127-133 (2003). Briefly, male Sprague-Dawley rats weighing 320-380 g were used after overnight fasting. The rats were administered orally with: i) a negative control (isotonic saline): ii) a glycerol glucoside derivative (50, 100 mg/kg); and iii) a positive control compound, aspirin (30 mg/kg x 4 times). A 75 min period occurred between each dose to allow the return of homeostasis.
The left jugular vein and the right carotid artery were cannulated with a 4 cm long polyethylene tube (o.d. 1 mm) while being infused with 50 μ/kg i.v. heparin. These catheters were then connected to the ends of a 15 cm long polyethylene tube (o.d. 2 mm) containing a 5 cm long suture silk thread (no. 4). Before the silk thread was placed in the polyethylene tube a pre-treatment wet weight was determined (i.e., a pre-thrombus formation weight). At 120 min after each drug treatment, the blood flow through the shunt was measured for 15 minutes. The silk thread, now containing newly formed thrombi, was gently removed, and a post-treatment wet weight was measured immediately. The newly formed thrombus wet weight was determined by subtracting the pre-treatment silk wet weight from the post-treatment silk wet weight. Thrombus weight for saline was 12.9 mg, for BH-2 (Regaloside C (2)) was 8.8 mg, and for aspirin was 7.1 mg (see FIG. 12).
The rate of thrombosis inhibition was calculated with the equation as follows: % Thrombosis inhibition=(A−A1)/A×100%
Where A was the newly formed thrombus wet weight of the control group (i.e., Saline), and A1 was the newly formed thrombus wet weight of the test derivative or positive control compound (i.e., aspirin).

A word on the inhibition: it is the drop in the measured response relative to a control, in per cent. A higher inhibition goes with a strong effect.

The compound `O=C(O)c1cc(O)c2c(c1)C(=O)c1cccc(O)c1C2=O` [rhein] returned an inhibition at 10 µM in assay [1] of 1.8%.
For the compound `O=C(/C=C/c1ccc(O)c(O)c1)OC[C@@H](O)CO[C@@H]1O[C@H](CO)[C@@H](O)[C@H](O)[C@H]1O` [BH-2, regaloside C], the “% Thrombosis inhibition” value in assay [2] ((A-A1)/A x 100% versus saline control, rat arteriovenous shunt) was determined as 31.7%. The “Thrombus weight (newly formed thrombus wet weight)” value in assay [2] worked out at 8.8 mg.
Consider `CC(=O)Oc1ccccc1C(=O)O` [aspirin, acetylsalicylic acid, reference compound], for which, in assay [2], the “Thrombus weight (newly formed thrombus wet weight)” value was 7.1 mg.

These data come from patent US20070037756A1, “Compositions and methods for the prevention and treatment of circulatory conditions” (LEADTREK, INC, priority 2005, published 2007).
